Assay results from US9611262B2, “Substituted 2-azabicycles and their use as orexin receptor modulators” (JANSSEN PHARMACEUTICA NV, priority 2014, dated 2017).

How the values were obtained:
[1] = target: rat orexin 1 receptor (Rattus norvegicus, UniProt P56718); experiment: Rat orexin 1 receptor radioligand binding (competitive); settings: HEK293 cells stably expressing rat orexin 1 receptor; 4 nM radioligand; averages of 2-20 runs; read-out: rOX1 Ki
Summary of the method: (§1)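 Competition binding used HEK293 cells expressing rat OX1 or CHO cells expressing human OX1, with 4 nM final [3H]-labelled thiazolyl-oxadiazolyl-pyrrolidinyl methanone radioligand in PBS. Compounds were tested at 7 concentrations (0.1 nM–10 μM) for 60 min at room temperature, then filtered; 10 μM almorexant defined nonspecific binding. Ki was derived from the one-site IC50 and the radioligand Kd.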

[2] = target: human orexin 1 receptor (Homo sapiens (Human), UniProt O43613); experiment: Human orexin 1 receptor radioligand binding (competitive); settings: CHO cells stably expressing human orexin 1 receptor; 4 nM radioligand; averages of 2-20 runs; read-out: hOX1 Ki
Summary of the method: as §1

[3] = target: human orexin 2 receptor (Homo sapiens (Human), UniProt O43614); experiment: Human orexin 2 receptor radioligand binding ([3H]-EMPA competition); settings: HEK293 stably expressing human orexin 2 receptor; 2 nM [3H]-EMPA; averages of 2-20 runs; read-out: hOX2 Ki
Summary of the method: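 Membranes-free whole HEK293 cells stably expressing human OX2 receptor incubated with [3H]-EMPA and compound (7 concentrations, 0.1 nM–10 μM, ≤0.1% DMSO) for 60 min at room temperature; nonspecific binding with 10 μM almorexant. Filtration and scintillation counting; one-site IC50 converted to Ki using predetermined Kd, triplicates averaged over 2-20 runs.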

Sequence of human orexin 1 receptor (O43613 whole entry): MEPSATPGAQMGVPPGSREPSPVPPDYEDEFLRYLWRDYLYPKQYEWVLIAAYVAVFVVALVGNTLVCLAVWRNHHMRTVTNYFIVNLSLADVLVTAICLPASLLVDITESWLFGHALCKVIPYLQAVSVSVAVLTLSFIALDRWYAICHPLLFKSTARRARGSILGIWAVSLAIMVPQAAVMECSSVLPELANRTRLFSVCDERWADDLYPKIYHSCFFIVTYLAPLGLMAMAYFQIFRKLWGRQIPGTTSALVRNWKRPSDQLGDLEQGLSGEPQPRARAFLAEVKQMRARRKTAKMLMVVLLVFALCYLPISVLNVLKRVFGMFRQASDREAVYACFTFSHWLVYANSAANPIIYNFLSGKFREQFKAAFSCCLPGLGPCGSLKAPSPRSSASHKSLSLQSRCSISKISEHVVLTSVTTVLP
Sequence of human orexin 2 receptor (O43614 whole entry): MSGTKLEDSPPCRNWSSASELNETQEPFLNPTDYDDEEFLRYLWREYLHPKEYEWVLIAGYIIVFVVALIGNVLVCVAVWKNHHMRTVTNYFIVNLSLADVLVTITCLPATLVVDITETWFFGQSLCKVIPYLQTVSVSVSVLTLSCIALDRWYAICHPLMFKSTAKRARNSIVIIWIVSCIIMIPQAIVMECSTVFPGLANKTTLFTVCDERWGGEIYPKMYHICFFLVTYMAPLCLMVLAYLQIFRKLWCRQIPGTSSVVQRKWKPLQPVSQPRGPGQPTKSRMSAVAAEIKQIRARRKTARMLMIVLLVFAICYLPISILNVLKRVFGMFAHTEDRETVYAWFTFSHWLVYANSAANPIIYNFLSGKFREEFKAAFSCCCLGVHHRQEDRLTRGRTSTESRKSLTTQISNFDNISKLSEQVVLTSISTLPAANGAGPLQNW

Row | Structure (SMILES) | Ki [1] [nM] | Ki [2] [nM] | Ki [3] [nM]
1 | C[C@@H]1[C@H]2C[C@@H](Oc3ccc(C(F)(F)F)cn3)[C@H](C2)N1C(=O)c1ccccc1-c1cccc([N+](=O)[O-])n1 [Example 174, [(1R,2R,4S,5R)-2-methyl-5-[[5-(trifluoromethyl)-2-pyridyl]oxy]-3-azabicyclo[2.2.1]heptan-3-yl]-[2-(6-nitro-2-pyridyl)phenyl]methanone] | 8 | 9 | 3940
2 | C[C@@H]1[C@H]2C[C@@H](Oc3ccc(C(F)(F)F)cn3)[C@H](C2)N1C(=O)c1cc(F)ccc1-n1nccn1 (relative stereo) [Example 29, (5-fluoro-2-(2H-1,2,3-triazol-2-yl)phenyl)((1S*,3R*,4R*,6R*)-3-methyl-6-((5-(trifluoromethyl)pyridin-2-yl)oxy)-2-azabicyclo[2.2.1]heptan-2-yl)methanone] | 5 | 14 | 836
3 | Cc1cnc(C(=O)N2[C@H](C)[C@@H]3CC[C@H]2[C@H](Oc2ccc(C(F)(F)F)cn2)C3)c(-c2ncccn2)c1 [Example 161, (5-methyl-3-pyrimidin-2-yl-2-pyridyl)-[(1R,2R,4S,5R)-2-methyl-5-[[5-(trifluoromethyl)-2-pyridyl]oxy]-3-azabicyclo[2.2.2]octan-3-yl]methanone] | 4 | 8 | 5000
4 | O=C(c1cc(F)ccc1-c1ncc(F)cn1)N1[C@H](CF)[C@@H]2CC[C@H]1[C@H](Oc1ccc(C(F)(F)F)cn1)C2 [Example 80, (5-fluoro-2-(5-fluoropyrimidin-2-yl)phenyl)((1S,3S,4R,6R)-3-(fluoromethyl)-6-((5-(trifluoromethyl)pyridin-2-yl)oxy)-2-azabicyclo[2.2.2]octan-2-yl)methanone] | 43 | 35 | 4170
5 | Cc1ccc(-n2nccn2)c(C(=O)N2[C@H](C)[C@H]3C[C@@H](Oc4cnc(C(F)(F)F)cn4)[C@@H]2C3)n1 (relative stereo) [Example 46, (6-methyl-3-(2H-1,2,3-triazol-2-yl)pyridin-2-yl)((1S*,3R*,4R*,6R*)-3-methyl-6-((5-(trifluoromethyl)pyrazin-2-yl)oxy)-2-azabicyclo[2.2.1]heptan-2-yl)methanone] | 24 | 29 | 4300
6 | C[C@@H]1[C@@H]2CC[C@@H]([C@H](Oc3ccc(C(F)(F)F)cn3)C2)N1C(=O)c1ncccc1-n1nccn1 [Example 159, [(1R,2R,4S,5R)-2-methyl-5-[[5-(trifluoromethyl)-2-pyridyl]oxy]-3-azabicyclo[2.2.2]octan-3-yl]-[3-(triazol-2-yl)-2-pyridyl]methanone] | 14 | 41 | 2800
7 | Cc1cnc(C(=O)N2[C@H](C)[C@@H]3CC[C@H]2[C@H](Oc2ccc(C(F)(F)F)cn2)C3)c(-n2nccn2)c1 [Example 160, [5-methyl-3-(triazol-2-yl)-2-pyridyl]-[(1R,2R,4S,5R)-2-methyl-5-[[5-(trifluoromethyl)-2-pyridyl]oxy]-3-azabicyclo[2.2.2]octan-3-yl]methanone] | 8 | 11 | 872
8 | Cc1cccc(C(=O)N2[C@H](C)[C@H]3C[C@@H](Oc4ccc(C(F)(F)F)nc4)[C@@H]2C3)c1-n1nccn1 (relative stereo) [Example 39, (3-methyl-2-(2H-1,2,3-triazol-2-yl)phenyl)((1S*,3R*,4R*,6R*)-3-methyl-6-((6-(trifluoromethyl)pyridin-3-yl)oxy)-2-azabicyclo[2.2.1]heptan-2-yl)methanone] | 90 | 123 | 3600
9 | Cc1cnc(C(=O)N2C(CC(C)C)C3CC(Oc4ccc(C(F)(F)F)cn4)C2C3)c(-n2nccn2)c1 (racemic) [Example 208, (R/S)-[2-isobutyl-5-[[5-(trifluoromethyl)-2-pyridyl]oxy]-3-azabicyclo[2.2.1]heptan-3-yl]-[5-methyl-3-(triazol-2-yl)-2-pyridyl]methanone] | 177 | 170 | 418
10 | C[C@@H]1[C@@H]2CC[C@@H]([C@H](Oc3ccc(C(F)(F)F)cn3)C2)N1C(=O)c1ccccc1-n1nccn1 [Example 157, [(1R,2R,4S,5R)-2-methyl-5-[[5-(trifluoromethyl)-2-pyridyl]oxy]-3-azabicyclo[2.2.2]octan-3-yl]-[2-(triazol-2-yl)phenyl]methanone] | 29 | 129 | 6000
11 | C[C@@H]1[C@H]2C[C@@H](Oc3ccc(C(F)(F)F)cn3)[C@H](C2)N1C(=O)c1ccccc1-n1ncc(CCCF)n1 [Example 168, [2-[4-(3-fluoropropyl)triazol-2-yl]phenyl]-[(1R,2R,4S,5R)-2-methyl-5-[[5-(trifluoromethyl)-2-pyridyl]oxy]-3-azabicyclo[2.2.1]heptan-3-yl]methanone] | 14 | 20 | 1380
12 | Cc1ccc(Br)c(C(=O)N2C(C)C3CC(Nc4cnc(C(F)(F)F)cn4)C2C3)n1 (racemic) [Example 7, (R/S)-(3-bromo-6-methylpyridin-2-yl)(3-methyl-6-((5-(trifluoromethyl)pyrazin-2-yl)amino)-2-azabicyclo[2.2.1]heptan-2-yl)methanone] | 125 | 144 | 1200
13 | C[C@@H]1[C@H]2C[C@@H](Oc3ccc(C(F)(F)F)cn3)[C@H](C2)N1C(=O)c1ccccc1-c1cccc(Br)n1 [Example 175, [2-(6-bromo-2-pyridyl)phenyl]-[(1R,2R,4S,5R)-2-methyl-5-[[5-(trifluoromethyl)-2-pyridyl]oxy]-3-azabicyclo[2.2.1]heptan-3-yl]methanone] | 13 | 15 | 837

Now from value to molecule:

Row | Ki [1] [nM] | Ki [2] [nM] | Ki [3] [nM] | Structure (SMILES)
14 | 44 | 24 | 3000 | CC(C)CC1C2CC(Oc3ccc(C(F)(F)F)cn3)C(C2)N1C(=O)c1ccccc1-c1ncccn1 (racemic) [Example 209, (R/S)-[2-isobutyl-5-[[5-(trifluoromethyl)-2-pyridyl]oxy]-3-azabicyclo[2.2.1]heptan-3-yl]-(2-pyrimidin-2-ylphenyl)methanone]
15 | 23 | 17 | 1600 | C[C@@H]1[C@H]2C[C@@H](Oc3ccc(C(F)(F)F)cn3)[C@H](C2)N1C(=O)c1ccccc1-c1ccc(F)nc1 [Example 171, [2-(6-fluoro-3-pyridyl)phenyl]-[(1R,2R,4S,5R)-2-methyl-5-[[5-(trifluoromethyl)-2-pyridyl]oxy]-3-azabicyclo[2.2.1]heptan-3-yl]methanone]
16 | 35 | 138 | 2700 | Cc1ccc(-c2ncccn2)c(C(=O)N2[C@H](C)[C@@H]3CC[C@H]2[C@H](Oc2ccc(C(F)(F)F)cn2)C3)n1 [Example 158, (6-methyl-3-pyrimidin-2-yl-2-pyridyl)-[(1R,2R,4S,5R)-2-methyl-5-[[5-(trifluoromethyl)-2-pyridyl]oxy]-3-azabicyclo[2.2.2]octan-3-yl]methanone]
17 | 5 | 8 | 595 | C[C@@H]1[C@H]2C[C@@H](Oc3ccc(C(F)(F)F)cn3)[C@H](C2)N1C(=O)c1cccc(F)c1-n1nccn1 (relative stereo) [Example 27, (3-fluoro-2-(2H-1,2,3-triazol-2-yl)phenyl)((1S*,3R*,4R*,6R*)-3-methyl-6-((5-(trifluoromethyl)pyridin-2-yl)oxy)-2-azabicyclo[2.2.1]heptan-2-yl)methanone]
18 | 48 | 35 | 3760 | Cc1ccc(-c2ncccn2)c(C(=O)N2[C@H](CF)[C@@H]3CC[C@H]2[C@H](Oc2ccc(C(F)(F)F)cn2)C3)n1 [Example 74, ((1S,3S,4R,6R)-3-(fluoromethyl)-6-((5-(trifluoromethyl)pyridin-2-yl)oxy)-2-azabicyclo[2.2.2]octan-2-yl)(6-methyl-3-(pyrimidin-2-yl)pyridin-2-yl)methanone]
19 | 36 | 46 | > 10000 | O=C(c1cc(F)ccc1-c1ncccn1)N1[C@H](CF)[C@@H]2CC[C@H]1[C@H](Oc1ccc(C(F)(F)F)cn1)C2 [Example 76, (5-fluoro-2-(pyrimidin-2-yl)phenyl)((1S,3S,4R,6R)-3-(fluoromethyl)-6-((5-(trifluoromethyl)pyridin-2-yl)oxy)-2-azabicyclo[2.2.2]octan-2-yl)methanone]
20 | 66 | 67 | > 10000 | C[C@@H]1[C@H]2C[C@@H](Oc3ccc(C(F)(F)F)cn3)[C@H](C2)N1C(=O)c1ccccc1-c1ccnc(F)c1 [Example 172, [2-(2-fluoro-4-pyridyl)phenyl]-[(1R,2R,4S,5R)-2-methyl-5-[[5-(trifluoromethyl)-2-pyridyl]oxy]-3-azabicyclo[2.2.1]heptan-3-yl]methanone]
21 | 11 | 11 | 1500 | CCC1C2CC(Oc3ccc(C(F)(F)F)cn3)C(C2)N1C(=O)c1ncc(C)cc1-n1nccn1 (racemic) [Example 216, (R/S)-[2-ethyl-5-[[5-(trifluoromethyl)-2-pyridyl]oxy]-3-azabicyclo[2.2.1]heptan-3-yl]-[5-methyl-3-(triazol-2-yl)-2-pyridyl]methanone]
22 | 13 | 9 | 243 | CCC1C2CC(Oc3ccc(C(F)(F)F)cn3)C(C2)N1C(=O)c1cccc(F)c1-c1ncccn1 (racemic) [Example 217, (R/S)-[2-ethyl-5-[[5-(trifluoromethyl)-2-pyridyl]oxy]-3-azabicyclo[2.2.1]heptan-3-yl]-(3-fluoro-2-pyrimidin-2-yl-phenyl)methanone]
